Assay results reported in patent US9834540B2, “Omeprazole Sodium semihydrate and preparation method thereof” (TIANJIN UNIVERSITY, priority 2015, dated 2017).
Where “and” joins values, the source holds several entries; their conditions need not be identical. Identical values can stand only once. Entries after “also recorded” stand apart in the source; their conditions may differ.

Experiments:
[1] = prior-art description; cited from earlier work
[2] = Toxic responses, overall comparison; settings: in words
male and female rats [3] = assay: Reproductive toxicity test; settings: oral 138 mg/kg/day
[4] = Thermal stability test at 60° C. (airtight container, 10 days, weighed regularly); format: physicochemical; settings: for Change of crystal form / X-ray powder diffraction pattern after deposit at 60° C.: 10 days
[5] = Deposit at 40° C. and relative humidity 75% for 3 days; format: physicochemical; settings: relative humidity 75%
Method: 0.45 g of Omeprazole Sodium monohydrate, 20 mL of ethyl acetate and 10 mL of s-butanol were added to a crystallizer, and the mixture was stirred at a temperature of 35° C. and a speed of 200 r/min for 2 hours, followed by filtrating and drying to provide 0.42 g of Omeprazole Sodium semihydrate with a mole yield of 95.6% and a HPLC purity of 99.8%. The product had same X-ray powder diffraction pattern as FIG. 1, same solid Fourier transform infrared spectrum as FIG. 2, and DSC decomposition temperature of 227.5° C.

Flowability (carr index) = format: physicochemical
[6] = DSC analysis, thermal decomposition temperature; format: physicochemical; settings: 10° C./min, 25˜300° C.
Method: The DSC data is obtained by analysis using a differential scanning calorimetry (DSC1/500, Mettler Toledo Corporation, Switzerland), and the analysis conditions are as follows: adding 10 mg of sample to a 40 μL Aluminum crucible, providing high-purity nitrogen as reaction gas and shield gas with a gas-flow rate of 50 mL/min and 20 mL/min, and raising the temperature at a rate of 10° C./min and a range of 25˜300° C.

[7] = Hygroscopicity at 40° C. by dynamic vapor sorption; format: physicochemical
male and female rats [8] = settings: rat, in vivo
rats [9] = assay: Carcinogenic test in rats within 24 months; format: in vivo; settings: 24 months persistently treated
stomach ECL cells = settings: rat, in vivo
dogs = settings: dog, in vivo
[10] = Toxic responses test, lethal dose in mice; settings: mouse, in vivo
[11] = Toxic responses test, intravenous lethal dose in rats; settings: rat, in vivo, read-out: intravenous LD50 (median lethal dose)
rats [12] = settings: rat, in vivo, 140 mg/kg/day
[13] = listed as Example 1, sodium salt
[14] = listed as Example 2, sodium salt
[15] = listed as Example 3, sodium salt

COc1ccc2[nH]c([S+]([O-])Cc3ncc(C)c(OC)c3C)nc2c1 (stereo not drawn) [Omeprazole Sodium hydrate]
stability (in words) [1]: poor stability

COc1ccc2[n-]c([S+]([O-])Cc3ncc(C)c(OC)c3C)nc2c1.[Na+] (stereo not drawn) [Omeprazole Sodium semihydrate]
toxicity compared with existing Omeprazole Sodium or monohydrate [2]: improved toxicity
influence on reproductive performance (male and female rats [3]): no influence on reproductive performance
Weight changing rate ([4]; 0 day): 0%
Weight of sample ([4]; 0 day): 9.5852 g
Weight changing rate ([4]; 5 day): 1.1%
Weight of sample ([4]; 5 day): 9.4826 g
Weight of sample ([4]; 10 day): 9.3790 g
Weight changing rate ([4]; 10 day, listed as Example 1, sodium salt): 2.4%
Weight changing rate ([4]; 10 day, listed as Example 2, sodium salt): 2.5%
Weight changing rate ([4]; 10 day, listed as Example 3, sodium salt): 2.4%
Change of crystal form / X-ray powder diffraction pattern after deposit at 60° C. [4, 13]: without making any significant changes in the X-ray powder diffraction pattern
Change of crystal form / X-ray powder diffraction pattern after deposit at 60° C. [4, 14]: without making any significant changes in the X-ray powder diffraction pattern
Change of crystal form / X-ray powder diffraction pattern after deposit at 60° C. [4, 15]: without making any significant changes in the X-ray powder diffraction pattern
Change of crystal form / X-ray powder diffraction pattern after deposit at 60° C. ([4]; sodium salt): does not make any significant change
Weight changing rate [5]: 0.68%
carr index (Flowability (carr index); [13]): 14.3%
carr index (Flowability (carr index); [14]): 13.9%
carr index (Flowability (carr index); [15]): 14.7%
carr index (Flowability (carr index); sodium salt): less than 15%
thermal decomposition temperature (DSC decomposing exothermic peak) [6, 13]: 227.5 °C
thermal decomposition temperature (DSC decomposing exothermic peak) [6, 14]: 229.2 °C
thermal decomposition temperature (DSC decomposing exothermic peak) [6, 15]: 229.5 °C
thermal decomposition temperature (DSC decomposing exothermic peak) ([6]; sodium salt): 228.5±1 °C and 228.5 °C
drug mutation test result (Drug mutation test): negative
hygroscopicity compared with Omeprazole Sodium monohydrate ([7]; in words): lower hygroscopicity
Weight changing rate ([7]; relative humidity 0%): 0%
Weight changing rate ([7]; relative humidity 5%): 0.001%
Weight changing rate ([7]; relative humidity 10%): 0.004%
Weight changing rate ([7]; relative humidity 15%): 0.01%
Weight changing rate ([7]; relative humidity 20%): 0.02%
Weight changing rate ([7]; relative humidity 25%): 0.02%
Weight changing rate ([7]; relative humidity 30%): 0.03%
Weight changing rate ([7]; relative humidity 35%): 0.03%
Weight changing rate ([7]; relative humidity 40%): 0.03%
Weight changing rate ([7]; relative humidity 45%): 0.14%
Weight changing rate ([7]; relative humidity 50%): 0.17%
Weight changing rate ([7]; relative humidity 55%): 0.28%
Weight changing rate ([7]; relative humidity 60%): 0.37%
Weight changing rate ([7]; relative humidity 65%): 0.45%
Weight changing rate ([7]; relative humidity 70%): 0.53%
Weight changing rate ([7]; relative humidity 75%): 0.69%
reproductive toxicity test result (male and female rats [8]): negative
carcinogenic test: gastric mucosa finding (rats [9]): enterochromaffin-like cell hyperplasia in gastric mucosa
carcinogenic test: carcinogenesis / cancer metastasis (rats [9]; sodium salt): cancer metastasis is not found; also recorded: carcinogenesis occurred without cancer metastasis

COc1ccc2[nH]c([S+]([O-])Cc3ncc(C)c(OC)c3C)nc2c1 (stereo not drawn) [Omeprazole]
stomach ECL cell findings in long-term treatment (stomach ECL cells): cell increase and benign tumour were observed in stomach ECL cells
Intravenous LDLo (lowest published lethal dose) (dogs): 500 mg/kg
LD50 ([10]; mice, intravenous, read-out: Intravenous LD50): 82.8 mg/kg
LD50 ([10]; oral, species not restated, follows mice, read-out: oral LD50): > 2000 mg/kg
LD50 [11]: 302 mg/kg
long-term toxicity findings (rats [12]): liver and kidney increased in weight without histologic changes
